{
  "source": "patent US20250295653A1",
  "about": "“Use Of Glycine Transporter- 1 Antagonists As Vascular Dementia And/Or Stroke Prophylactic/Treatment Agents” (Recherches Neuro-Hippocampe Inc., priority 2022, published 2025)",
  "key": {"NMDAR [1]": {"molecular_target": "T1, NMDAR (Mus musculus, UniProt P35438)", "assay": "Whole-cell voltage-clamp recordings of evoked NMDAR-EPSCs in CA1 pyramidal cells of acute hippocampal slices", "type": "cell-based", "conditions": "for effect of a low dose after priming of NMDARs with high doses of glycine or D-serine: subsequent application of a low dose"}, "[2]": {"conditions": "175 mg, clinical trials; cited from earlier work"}, "NMDAR [3]": {"tested_on": "NMDAR", "assay": "Whole-cell voltage-clamp recordings of evoked NMDAR-EPSCs in CA1 pyramidal cells of acute hippocampal slices", "type": "cell-based, mouse", "conditions": "1 mM glycine, acute slices, cells infected with AAV-GluN1-A714L"}, "[4]": {"tested_on": "NMDAR (GluN1-WT or GluN1-A714L with GluN2A) in HEK293 cells", "conditions": "1 mM glycine"}, "NMDAR [5]": {"molecular_target": "T1, NMDAR", "assay": "NMDAR-EPSC trains in acute slices during the oxygen-glucose deprivation (OGD) paradigm", "type": "cell-based", "conditions": "NMDAR-EPSC trains (20 Hz) recorded with GO", "source_text": "Whole-cell electrophysiology on hippocampal slices and HEK293 cells. Whole-cell voltage-clamp recordings were obtained from visually identified CA1 pyramidal cells from acute hippocampal brain slices (300 μm thick) in oxygenated artificial cerebrospinal fluid (ACSF) as previously described (Martina et al., 2004, 2005). The cells were voltage-clamped at −65 mV using cesium methane sulfonate based internal solution and postsynaptic currents were evoked by electrical stimulation of the Schaffer collaterals with a bipolar stimulating electrode positioned in the Stratum radiatum. The intensity of the stimulation was adjusted to obtain evoked excitatory postsynaptic currents (EPSCs). […] To isolate the NMDAR-EPSC, a low concentration of MgCl2 (0.13 mM) ACSF was used wherein the CaCl2 concentration was increased to 3.5 mM to maintain cation balance.\nOxygen-glucose deprivation paradigm. To mimic ischemia, the acute slices were challenged by an oxygen-glucose deprivation paradigm (OGD) modified from Rossi et al. (Rossi et al., 2000). In this paradigm, external glucose was replaced with 7 mM sucrose, and the external solution was saturated with 95% N2/5% CO2 instead of 95% O2/5% CO2. Iodoacetate and cyanide were also added to the OGD external solution to block glycolysis and oxidative phosphorylation.\nPurification of glycine oxidase. […]"}},
  "note": "“Also recorded” adds a separate entry of the source.",
  "data": [
    {"molecule": "O=C(O)CN(CC(=O)O)c1ccccc1OCCOc1ccccc1N(CC(=O)O)CC(=O)O", "note": "[BAPTA]", "values": [
      {"measurement": "effect on the decrease in NMDAR-EPSC amplitude induced by 1 mM exogenous glycine", "setting": "NMDAR [1]; BAPTA 10 mM in the recording electrode", "result": "significant attenuation"}
    ]},
    {"molecule": "C[C@H](Oc1ccc(S(C)(=O)=O)cc1C(=O)N1CCN(c2ncc(C(F)(F)F)cc2F)CC1)C(F)(F)F", "note": "[Bitopertin]", "values": [
      {"measurement": "tolerability at high dose", "setting": "[2]", "result": "relatively well tolerated"}
    ]},
    {"molecule": "N[C@H](CO)C(=O)O", "note": "[D-serine]", "values": [
      {"measurement": "effect on evoked NMDAR-EPSC amplitude", "setting": "NMDAR [1]; 10 μM D-serine, WT and SR−/− mice", "result": "potentiated"},
      {"measurement": "effects of increasing concentrations on NMDAR-EPSC amplitudes", "setting": "NMDAR [1]; D-serine, WT mice", "result": "dose-dependent"},
      {"measurement": "dose required to induce a decrease in NMDAR-EPSC amplitude", "setting": "NMDAR [1]; SR−/− mice", "result": 2, "unit": "mM"},
      {"measurement": "dose required to induce a decrease in NMDAR-EPSC amplitude", "setting": "NMDAR [1]; WT mice", "result": 1, "unit": "mM"},
      {"measurement": "dose-response curve of NMDAR-EPSC amplitudes relative to that of glycine", "setting": "NMDAR [1]; WT mice", "result": "left-shifted"},
      {"measurement": "effect of a low dose after priming of NMDARs with high doses of glycine or D-serine", "setting": "NMDAR [1]", "result": "induced GINI"}
    ]},
    {"molecule": "O=C(N/N=C/c1ccc(O)c(O)c1)c1cc2ccccc2cc1O", "note": "[dynasore]", "values": [
      {"measurement": "effect on the decrease in NMDAR-EPSC amplitude by 1 mM glycine", "setting": "NMDAR [1]; 100 μM dynasore", "result": "abolished"},
      {"measurement": "effect on the decrease in NMDAR-EPSC amplitude evoked by 1 mM D-serine", "setting": "NMDAR [1]; dynasore", "result": "abolished"},
      {"measurement": "effect on the decrease of NMDAR-EPSC amplitude induced by 250 μM glycine", "setting": "NMDAR [1]; dynasore, GlyT1+/− mice", "result": "abolished"}
    ]},
    {"molecule": "NCC(=O)O", "note": "[glycine]", "values": [
      {"measurement": "effect on NMDAR-EPSC amplitudes", "setting": "NMDAR [3]", "result": "did not decrease"},
      {"measurement": "effect on NMDAR-EPSC amplitude", "setting": "NMDAR [1]; 250 μM glycine, GlyT1+/− mice", "result": "significantly inhibited"},
      {"measurement": "effect on NMDAR-EPSC amplitude", "setting": "NMDAR [1]; 250 μM glycine, WT mice", "result": "potentiated"},
      {"measurement": "effect on NMDAR-EPSC amplitude", "setting": "NMDAR [1]; 1 mM glycine with low Ca2+ (1 mM)", "result": "increase in NMDAR-EPSC amplitude"},
      {"measurement": "difference in NMDAR-EPSC amplitude between WT and GlyT1+/− mice", "setting": "NMDAR [1]; bath application of 10 μM or 1 mM glycine", "result": "no significant effect"},
      {"measurement": "effect on NMDAR-EPSC amplitude", "setting": "NMDAR [1]; bath application of low glycine concentrations (below / ≤250 μM), WT slices", "result": "increased; also recorded: potentiated in a dose-dependent fashion"},
      {"measurement": "effect on NMDAR-EPSC amplitude", "setting": "NMDAR [1]; high glycine concentration (1 mM), normal Ca2+ (3.5 mM), WT slices", "result": "significantly reduced; also recorded: significant decrease"},
      {"measurement": "effect of a low dose after priming of NMDARs with high doses of glycine or D-serine", "setting": "NMDAR [1]", "result": "induced GINI"},
      {"measurement": "effect on NMDAR amplitude", "setting": "[4]; cells expressing GluN1-A714L", "result": "significantly increased"},
      {"measurement": "effect on amplitude of the NMDAR-EPSC", "setting": "[4]; cells expressing GluN1-WT", "result": "significant decrease"}
    ]},
    {"molecule": "GO: an enzyme that catalyzes the breakdown of glycine; His-tagged, from Bacillus subtilis, expressed in E. coli (protein, UniProt O31616 1-369, looked up, His tag, an enzyme that catalyzes the breakdown of glycine; His-tagged, from Bacillus subtilis, expressed in E. coli) Glycine oxidase: MKRHYEAVVIGGGIIGSAIAYYLAKENKNTALFESGTMGGRTTSAAAGMLGAHAECEERDAFFDFAMHSQRLYKGLGEELYALSGVDIRQHNGGMFKLAFSEEDVLQLRQMDDLDSVSWYSKEEVLEKEPYASGDIFGASFIQDDVHVEPYFVCKAYVKAAKMLGAEIFEHTPVLHVERDGEALFIKTPSGDVWANHVVVASGVWSGMFFKQLGLNNAFLPVKGECLSVWNDDIPLTKTLYHDHCYIVPRKSGRLVVGATMKPGDWSETPDLGGLESVMKKAKTMLPAIQNMKVDRFWAGLRPGTKDGKPYIGRHPEDSRILFAAGHFRNGILLAPATGALISDLIMNKEVNQDWLHAFRIDRKEAVQI", "values": [
      {"measurement": "effect on the decrease of the NMDAR-EPSC amplitude following OGD", "setting": "NMDAR [5]", "result": "abolished"}
    ]}
  ]
}
